Read-outs that look alike come from different tables or passages of the source.
Columns and labels:
H358 = experiment: CellTiterGlo Cell Proliferation Assay, H358; type: cell-based; conditions: Homo sapiens, NCI-H358, KRas G12C, Lung, 96 hr
Procedure: (§1) A panel of tumor cell lines harboring KRas G12C or other KRas mutations are collected (Table 6). All cell lines are from ATCC or other sources indicated.
(§2) Typically cells are cultured in RPMI1640 or Dulbecco's modified Eagle's medium (DMEM, GIBCO) supplemented with 10% FBS (GIBCO, Invitrogen). For 2D culture cells (4×10^3/well) maintained in growth medium described above, are plated onto 96 well tissue culture plates Corning® Cat. 3603) a day before the treatment. For 3D culture 8000 cells/well are seeded onto 96 well ultra-low attachment tissue culture plates (Corning, #3474). The cells are treated compound for 96 hr, and then are analyzed for viability using the CellTiterGlo® Luminescent Cell Viability Assay® (Promega #G7572 for 2D and Promega #G9683 for 3D cultures) according to manufacturer's instructions and an EnVision™ plate reader. Nonlinear regression and sigmoidal dose-response curves are used to calculate the half maximal inhibitory concentration (IC50) with GraphPad Prism 4® software.

LU-99 = experiment: CellTiterGlo Cell Proliferation Assay, LU-99; type: cell-based; conditions: Homo sapiens, KRas G12C, Lung, 96 hr
Procedure: as §1, §2

Miapaca-2 = experiment: CellTiterGlo Cell Proliferation Assay, Miapaca-2; type: cell-based; conditions: Homo sapiens, MIA PaCa-2, KRas G12C, Pancreas, 96 hr
Procedure: as §1, §2

SW756 = experiment: CellTiterGlo Cell Proliferation Assay, SW756; type: cell-based; conditions: Homo sapiens, KRas G12C, Cervix, 96 hr
Procedure: as §1, §2

A427 = experiment: CellTiterGlo Cell Proliferation Assay, A427; type: cell-based; conditions: Homo sapiens, A-427, KRas G12D, lung, 96 hr
Procedure: as §1, §2

LXFA-983L = experiment: Combination 4 day growth assay (Cell TiterGlo), LXFA-983L; type: cell-based; conditions: LXFA 983L, 96 h, single treatment, read-out: Absolute IC50
Procedure: (§3) Cell lines for this study are obtained from ATCC and grown under ATCC recommended conditions, except for LXFA-983L, which is obtained from Oncotest/Charles Rivers Laboratories, Wilmington, Mass. and D122-96, which is obtained from L. Eisenbach (Weizman Institute of Science, Rehovot, Israel)—both grown under recommended conditions. […] The proliferation assay is performed as a 4 day growth assay using Cell TiterGlo® as the readout. Briefly, cells are plated in 96-well cell culture plates and allowed to adhere overnight at 37° C. The following day, cells are treated with compounds, either single treatments or combination treatments. First, the testing compounds are serially diluted in DMSO, followed by dilution into media as a 5× concentration with 1% DMSO, and finally added to cells in media to dilute to 1×. The cells are incubated at 37° C. for 4 more days. At the end of the incubation period, Cell TiterGlo® reagent is mixed and added to the wells. After 10 minutes, the luminescence is read by a Perkin Elmer Envision instrument. Absolute IC50 values generated by a 4-parameter logistics model for the single and combination treatments are generated, followed by combination indexes for each combination treatment and cell line. The combination IC50 values are adjusted based on the total concentration of each compound when added together. […] The combination index (CI) measures the degree to which the potency of a combination therapy differs from the expected-if-additive potency and is based on the Loewe definition of additivity.
(§4) [formula] Where • CAy and CBy are the concentrations of therapies A and B that produce an effect, y, when given in combination • ICAy and ICBy are the concentrations of A and B that produce an effect, y, when given individually The biological interpretation of the combination index is as follows: synergistic if the combination index <0.5, additive if the combination index is between 0.5 and 2, and antagonistic if the combination index is >2.

H2122 = experiment: Combination 4 day growth assay (Cell TiterGlo), H2122; type: cell-based; conditions: Homo sapiens, NCI-H2122, 96 h, single treatment, read-out: Absolute IC50
Procedure: as §3, §4

SW1573 = experiment: Combination 4 day growth assay (Cell TiterGlo), SW1573; type: cell-based; conditions: Homo sapiens, 96 h, single treatment, read-out: Absolute IC50
Procedure: as §3, §4

H358 xenograft = experiment: Anti-tumor growth activity, lung cancer H358 xenograft mouse model; type: in vivo; conditions: for Tumor Growth Inhibition (%) or Regression (−%): 28 Day, negative = regression
Procedure: To evaluate in vivo target inhibition and anti-tumor efficacy of a compound, Human lung cancer cells, H358 or H2122 are implanted into nude mice xenograft tumor models. Either H358 or H2122 cells (10×10^6 in a 1:1 Matrigel® mix, 0.2 mL total volume) are implanted by subcutaneous injection in hind leg of nude female mice (Harlan Laboratories). A total of 5 mice each group are used for efficacy study, and a total of 3-4 mice each group are used for target engagement and PD study. Treatment is initiated with oral administration (gavage) of a test compound or vehicle (20% Captisol®, 25 mM phosphate, pH 2.0 in 0.2 mL volume when the tumor size reaches approximately […]. Tumor growth and body weight are monitored over time to evaluate efficacy and signs of toxicity. Bidimensional measurements of tumors are performed twice a week and tumor volumes are calculated based on mid-axis length and mid-axis width. Tumor volume data are transformed to a log scale to equalize variance across time and treatment groups. The log volume data are analyzed with a two-way repeated measures analysis of variance by time and treatment using the mixed procedures in SAS software (version 8.2). The correlation model for the repeated measures is spatial power. Treated groups are compared to the control group at each time point. The mixed procedure is also used separately for each treatment group to calculate adjusted means and standard errors at each time point. Both analyses account for the autocorrelation within each animal. The adjusted means and standard errors are plotted for each treatment group versus time.
H358 lung tumor cells (10×10^6) are implanted by subcutaneous injection in hind leg of nude female mice (Taconic Biosciences).

H1373 xenograft = experiment: Anti-tumor growth activity, H1373 lung xenograft; type: in vivo; conditions: 28 Day, negative = regression
H2030 xenograft = experiment: Anti-tumor growth activity, H2030 lung xenograft; type: in vivo; conditions: 28 Day, negative = regression
HCC44 xenograft = experiment: Anti-tumor growth activity, HCC44 lung xenograft; type: in vivo; conditions: 28 Day, negative = regression
[1] = read-out: IC50 (μM) in 2 D cell proliferation
[2] = read-out: IC50 (μM) in 3 D spheroid cell proliferation

C=CC(=O)N1CCN(c2ncnc3c(F)c(-c4ccc(F)c5sc(N)nc45)c(Cl)cc23)CC1 [Example 1, 1-{4-[7-(2-Amino-7-fluoro-1,3-benzothiazol-4-yl)-6-chloro-8-fluoroquinazolin-4-yl]piperazin-1-yl}prop-2-en-1-one]
IC50 (H358; [1]): 0.041 µM
IC50 (H358; [2]): 0.026 µM
IC50 (LU-99; [1]): 1.57 µM
IC50 (LU-99; [2]): 0.659 µM
IC50 (Miapaca-2; [1]): 0.014 µM
IC50 (Miapaca-2; [2]): 0.086 µM
IC50 (SW756; [1]): 1.15 µM
IC50 (SW756; [2]): 7.83 µM
IC50 (A427; [1]): 10.1 µM
IC50 (A427; [2]): 18.6 µM
IC50 (LXFA-983L): 2590 nM
IC50 (H2122): 2870 nM
IC50 (SW1573): > 10000 nM
Tumor Growth Inhibition (%) or Regression (−%) (H358 xenograft; H358 Lung, 10 mg/kg BID, oral): −1.98%
Tumor Growth Inhibition (%) or Regression (−%) (H358 xenograft; H358 Lung, 10 mg/kg QD, oral): 42.7%
Tumor Growth Inhibition (%) or Regression (−%) (H358 xenograft; H358 Lung, 30 mg/kg BID, oral): −74.35%
Tumor Growth Inhibition (%) or Regression (−%) (H358 xenograft; H358 Lung, 30 mg/kg QD, oral): −33.98%
In Vivo Anti-Tumor Activities (H358 xenograft; H358 Lung, Example 1 30 mg/kg QDx28): −33.4
animal body weight loss (H358 xenograft; H358 xenograft mice, 10 or 30 mg/kg once or twice daily for 28 days, oral): No significant animal body weight loss was observed
Tumor Growth Inhibition (%) or Regression (−%) (H1373 xenograft; 15 mg/kg BID): −60%
Tumor Growth Inhibition (%) or Regression (−%) (H1373 xenograft; 30 mg/kg BID): −71.6%
Tumor Growth Inhibition (%) or Regression (−%) (H1373 xenograft; 30 mg/kg QD): −52.4%
Tumor Growth Inhibition (%) or Regression (−%) (H2030 xenograft; 15 mg/kg BID): 82%
Tumor Growth Inhibition (%) or Regression (−%) (H2030 xenograft; 30 mg/kg BID): 91.9%
Tumor Growth Inhibition (%) or Regression (−%) (H2030 xenograft; 30 mg/kg QD): 75.1%
Tumor Growth Inhibition (%) or Regression (−%) (HCC44 xenograft; 15 mg/kg BID): 93.4%
Tumor Growth Inhibition (%) or Regression (−%) (HCC44 xenograft; 30 mg/kg BID): −16.5%
Tumor Growth Inhibition (%) or Regression (−%) (HCC44 xenograft; 30 mg/kg QD): 85.4%

— patent publication US10968214B2, “KRas G12C inhibitors” (Eli Lilly and Company, priority 2018, dated 2021)
